Reference: patent US10695346B2, “4,6-pyrimidinylene derivatives and uses thereof” (Dana-Farber Cancer Institute, Inc., priority 2015, dated 2020)

Columns and labels:
[1] = test system: TP53 wild type MCF7 cells; test: Cell proliferation assay (Cell TITER-GLO); conditions: even at 5 μM; FIG. 3D
Description: To determine cell proliferation, cells were plated at 2×10^3 cells per well of 96-well plate. Cells were incubated and assayed at indicated times using Cell TITER-GLO Luminescent Cell Viability assay (Promega). Cells were allowed to equilibrate to room temperature for 15 minutes, then an equal volume of the Cell TITER-GLO reagent was added to wells and incubated for 15 minutes on an orbital shaker. Luminescence was recorded according to the manufacturer's protocol.

PIP4K2A = target: T1, PIP4K2A (Homo sapiens, UniProt P48426); test: ADP-GLO assay on PIP4K2A; assay type: biochemical; conditions: 0.01 mM ATP, 0.05 mM diC8 PI(5)P
T1 sequence (P48426 1-406): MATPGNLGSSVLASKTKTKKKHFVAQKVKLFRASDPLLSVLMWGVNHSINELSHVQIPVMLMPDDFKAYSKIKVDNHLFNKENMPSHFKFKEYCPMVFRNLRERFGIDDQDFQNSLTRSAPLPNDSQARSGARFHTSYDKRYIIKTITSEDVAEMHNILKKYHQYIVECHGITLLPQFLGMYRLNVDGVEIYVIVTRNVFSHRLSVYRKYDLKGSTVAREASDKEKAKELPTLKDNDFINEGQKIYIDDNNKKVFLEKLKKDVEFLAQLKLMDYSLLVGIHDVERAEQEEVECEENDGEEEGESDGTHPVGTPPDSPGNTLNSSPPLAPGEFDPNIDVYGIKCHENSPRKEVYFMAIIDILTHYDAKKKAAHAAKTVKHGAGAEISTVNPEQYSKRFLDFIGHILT
Description: After a further incubation of 40 minutes, 40 μl of Kinase Detection Buffer was added. After a further incubation of 40 min, the […] was read on […] ENVISION for 1 sec/well.

IC50 (PIP4K2A) [nM]	Structure (SMILES)	inhibition of TP53 wild type MCF7 cells [1]
	CN(C)C/C=C/C(=O)Nc1ccc(C(=O)Nc2cccc(Nc3cc(-c4cnc5[nH]ccc5c4)ncn3)c2)cc1 [Compound 8, (E)-N-(3-((6-(1H-pyrrolo[2,3-b]pyridin-5-yl)pyrimidin-4-yl)amino)phenyl)-4-(4-(dimethylamino)but-2-enamido)benzamide]	didn't inhibit
250	CN(C)C/C=C/C(=O)NC1CCCC(C(=O)Nc2cccc(Nc3cc(-c4cnc5[nH]ccc5c4)ncn3)c2)C1 (centres unmarked) [THZ-CE-A-4-9, (E)-N-(3-((6-(1H-pyrrolo[2,3-b]pyridin-5-yl)pyrimidin-4-yl)amino)phenyl)-3-(4-(dimethylamino)but-2-enamido)cyclohexane-1-carboxamide]	
